Experiments:
Assay type in all cases: in vivo
[1] = test system: cocklebur (Xanthium strumarium); experiment: Test B postemergence
Method in brief: (§1)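 Post-treatment, species sat 13–15 days under greenhouse conditions before visual scoring against controls, 0 (no effect) through 100 (complete control). Application preemergence to sown seeds or postemergence at 1- to 4-leaf stage, using a non-phytotoxic solvent/surfactant formulation.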

[2] = test system: crabgrass (Digitaria sanguinalis); experiment: Test B postemergence
Method in brief: as §1

[3] = test system: lambsquarters (Chenopodium album); experiment: Test B postemergence
Method in brief: as §1

[4] = test system: wild oat (Avena fatua); experiment: Test B postemergence
Method in brief: as §1

[5] = test system: Nightshade; experiment: Test C preemergence
Text: (§2) Seeds of plant species selected from bermudagrass (Cynodon dactylon), Surinam grass (Brachiaria decumbens), cocklebur (Xanthium strumarium), corn (Zea mays), crabgrass (Digitaria sanguinalis), woolly cupgrass (Eriochloa villosa), giant foxtail (Setaria faberii), goosegrass (Eleusine indica), johnsongrass (Sorghum halepense), kochia (Kochia scoparia), lambsquarters (Chenopodium album), morningglory (Ipomoea hederacea), yellow nutsedge (Cyperus esculentus), pigweed (Amaranthus retroflexus), common ragweed (Ambrosia elatior), soybean (Glycine max) and velvetleaf (Abutilon theophrasti) were planted and treated preemergence with test chemicals formulated in a non-phytotoxic solvent mixture which included a surfactant.
(§3) At the same time, plants selected from these crop and weed species and also winter barley (Hordeum vulgare), blackgrass (Alopecurus myosuroides), canary grass (Phalaris minor), chickweed (Stellaria media), downy brome (Bromus tectorum), green foxtail (Setaria viridis), Italian ryegrass (Lolium multiflorum), wheat (Triticum aestivum), wild oat (Avena fatua) and windgrass (Apera spica-venti) were treated with postemergence applications of some of the test chemicals formulated in the same manner. Plants ranged in height from 2 to 18 cm (1- to 4-leaf stage) for postemergence treatments. Plant species in the flooded paddy test consisted of rice (Oryza saliva), smallflower flatsedge (Cyperus difformis), duck salad (Heteranthera limosa) and barnyardgrass (Echinochloa crus-galli) grown to the 2-leaf stage for testing. Treated plants and controls were maintained in a greenhouse for 12 to 14 days, after which time all species were compared to controls and visually evaluated. Plant response ratings, summarized in Table C, are based on a scale of 0 to 100 where 0 is no effect and 100 is complete control. A dash (-) response means no test result.

[6] = test system: Sunflower; experiment: Test C preemergence; conditions: Rate 125 g/ha; scale 0 to 100, 0 no effect, 100 complete control
Text: as §2, §3

[7] = test system: Surinam grass (Brachiaria decumbens); experiment: Test C preemergence
Text: as §2, §3

[8] = test system: bermudagrass (Cynodon dactylon); experiment: Test C preemergence
Text: as §2, §3

[9] = test system: cocklebur (Xanthium strumarium); experiment: Test C preemergence
Text: as §2, §3

[10] = test system: common ragweed (Ambrosia elatior); experiment: Test C preemergence
Text: as §2, §3

[11] = test system: corn (Zea mays); experiment: Test C preemergence
Text: as §2, §3

[12] = test system: giant foxtail (Setaria faberii); experiment: Test C preemergence
Text: as §2, §3

[13] = test system: johnsongrass (Sorghum halepense); experiment: Test C preemergence
Text: as §2, §3

[14] = test system: kochia (Kochia scoparia); experiment: Test C preemergence
Text: as §2, §3

[15] = test system: lambsquarters (Chenopodium album); experiment: Test C preemergence
Text: as §2, §3

[16] = test system: pigweed (Amaranthus retroflexus); experiment: Test C preemergence
Text: as §2, §3

[17] = test system: soybean (Glycine max); experiment: Test C preemergence
Text: as §2, §3

[18] = test system: velvetleaf (Abutilon theophrasti); experiment: Test C preemergence
Text: as §2, §3

[19] = test system: woolly cupgrass (Eriochloa villosa); experiment: Test C preemergence
Text: as §2, §3

[20] = Rate 125 g/ha, scale 0 to 100, 0 no effect, 100 complete control
[21] = Rate 500 g/ha, scale 0 to 100, 0 is no effect, 100 is complete control, 13 to 15 days
[22] = Rate 250 g/ha, scale 0 to 100, 0 no effect, 100 complete control
[23] = preemergence, Rate 31 g/ha, scale 0 to 100
[24] = preemergence, Rate 62 g/ha, scale 0 to 100
[25] = preemergence, Rate 250 g/ha, scale 0 to 100, 0 no effect, 100 complete control
[26] = Rate 125 g/ha, scale 0 (no effect) to 100 (complete control), 13 to 15 days
[27] = Rate 62 g/ha, scale 0 to 100, 0 no effect, 100 complete control
[28] = preemergence, Rate 250 g/ha, visual evaluation after 12 to 14 days

SMILES: CC(C)OC(=O)c1cccc(N2CCC(n3ccc(C(C)(C)C)n3)C2=O)c1 (centres unmarked) [Compound 124]
- Plant response rating, Cocklebur [1, 20]: 20
- Plant response rating, Cocklebur [1, 21]: 90
- Plant response rating, Crabgrass [2, 20]: 0
- Plant response rating, Lambsquarters [3, 20]: 20
- Plant response rating, Wild Oat [4, 20]: 0
- Plant response rating, Nightshade ([5]; Rate 31 g/ha, scale 0 to 100): 0
- Plant response rating, Nightshade ([5]; Rate 62 g/ha, scale 0 to 100): 0
- Plant response rating, Nightshade [5, 20]: 20
- Plant response rating, Nightshade [5, 22]: 100
- Plant response rating, Sunflower [6]: 0
- Plant response rating, Surinam grass [7, 20]: 0
- Plant response rating, Surinam grass [7, 23]: 0
- Plant response rating, Surinam grass [7, 24]: 0
- Plant response rating, Surinam grass [7, 25]: 10
- Plant response rating, Bermudagrass [8, 20]: 80
- Plant response rating, Bermudagrass [8, 23]: 0
- Plant response rating, Bermudagrass [8, 24]: 60
- Plant response rating, Bermudagrass [8, 25]: 100
- Plant response rating, Cocklebur [9, 20]: 0
- Plant response rating, Cocklebur [9, 23]: 0
- Plant response rating, Cocklebur [9, 24]: 0
- Plant response rating, Cocklebur [9, 25]: 0
- Plant response rating, Ragweed, Common [10, 20]: 0
- Plant response rating, Ragweed, Common [10, 23]: 0
- Plant response rating, Ragweed, Common [10, 24]: 0
- Plant response rating, Ragweed, Common [10, 25]: 0
- Plant response rating, Corn [11, 20]: 0
- Plant response rating, Corn [11, 23]: 0
- Plant response rating, Corn [11, 24]: 0
- Plant response rating, Corn [11, 25]: 0
- Plant response rating, Foxtail, Giant [12, 20]: 20
- Plant response rating, Foxtail, Giant [12, 23]: 0
- Plant response rating, Foxtail, Giant [12, 24]: 0
- Plant response rating, Foxtail, Giant [12, 25]: 85
- Plant response rating, Johnsongrass [13, 20]: 20
- Plant response rating, Johnsongrass [13, 23]: 0
- Plant response rating, Johnsongrass [13, 24]: 15
- Plant response rating, Johnsongrass [13, 25]: 30
- Plant response rating, Kochia [14, 20]: 60
- Plant response rating, Kochia [14, 23]: 0
- Plant response rating, Kochia [14, 24]: 40
- Plant response rating, Kochia [14, 25]: 90
- Plant response rating, Lambsquarters [15, 20]: 100
- Plant response rating, Lambsquarters [15, 23]: 45
- Plant response rating, Lambsquarters [15, 24]: 50
- Plant response rating, Lambsquarters [15, 25]: 100
- Plant response rating, Pigweed [16, 20]: 0
- Plant response rating, Pigweed [16, 23]: 0
- Plant response rating, Pigweed [16, 24]: 0
- Plant response rating, Pigweed [16, 25]: 50
- Plant response rating, Soybean [17, 20]: 0
- Plant response rating, Soybean [17, 23]: 0
- Plant response rating, Soybean [17, 24]: 0
- Plant response rating, Soybean [17, 25]: 0
- Plant response rating, Velvetleaf [18, 20]: 0
- Plant response rating, Velvetleaf [18, 23]: 0
- Plant response rating, Velvetleaf [18, 24]: 0
- Plant response rating, Velvetleaf [18, 25]: 0
- Plant response rating, Cupgrass, Woolly [19, 20]: 50
- Plant response rating, Cupgrass, Woolly [19, 23]: 0
- Plant response rating, Cupgrass, Woolly [19, 24]: 30
- Plant response rating, Cupgrass, Woolly [19, 25]: 60

SMILES: CCC(CC)c1ccn(C2CCN(c3ccc(C)c(OC)c3)C2=O)n1 (centres unmarked) [Compound 81]
- Plant response rating, Cocklebur [1, 26]: 90
- Plant response rating, Cocklebur [1, 21]: 100
- Plant response rating, Crabgrass [2, 26]: 0
- Plant response rating, Crabgrass [2, 21]: 30
- Plant response rating, Lambsquarters [3, 26]: 20
- Plant response rating, Lambsquarters [3, 21]: 90
- Plant response rating, Wild Oat [4, 26]: 0
- Plant response rating, Wild Oat [4, 21]: 0
- Plant response rating, Nightshade ([5]; Rate 31 g/ha, scale 0 to 100): 70
- Plant response rating, Nightshade [5, 27]: 100
- Plant response rating, Nightshade [5, 20]: 100
- Plant response rating, Nightshade [5, 22]: 100
- Plant response rating, Sunflower [6]: 0
- Plant response rating, Surinam grass [7, 27]: 20
- Plant response rating, Surinam grass [7, 20]: 50
- Plant response rating, Surinam grass [7, 23]: 0
- Plant response rating (0 to 100), Surinam grass [7, 28]: 100
- Plant response rating, Bermudagrass [8, 27]: 100
- Plant response rating, Bermudagrass [8, 20]: 100
- Plant response rating, Bermudagrass [8, 23]: 100
- Plant response rating (0 to 100 where 0 is no effect and 100 is complete control), Bermudagrass [8, 28]: 100
- Plant response rating, Cocklebur [9, 27]: 0
- Plant response rating, Cocklebur [9, 20]: 0
- Plant response rating, Cocklebur [9, 23]: 0
- Plant response rating (0 to 100), Cocklebur [9, 28]: 20
- Plant response rating, Ragweed, Common [10, 20]: 100
- Plant response rating, Ragweed, Common [10, 23]: 30
- Plant response rating, Ragweed, Common [10, 25]: 100
- Plant response rating, Corn [11, 27]: 0
- Plant response rating, Corn [11, 20]: 0
- Plant response rating, Corn [11, 23]: 0
- Plant response rating (0 to 100), Corn [11, 28]: 0
- Plant response rating, Foxtail, Giant [12, 27]: 90
- Plant response rating, Foxtail, Giant [12, 20]: 100
- Plant response rating, Foxtail, Giant [12, 23]: 30
- Plant response rating (0 to 100), Foxtail, Giant [12, 28]: 100
- Plant response rating, Johnsongrass [13, 27]: 0
- Plant response rating, Johnsongrass [13, 20]: 20
- Plant response rating, Johnsongrass [13, 23]: 0
- Plant response rating (0 to 100), Johnsongrass [13, 28]: 20
- Plant response rating, Kochia [14, 27]: 100
- Plant response rating, Kochia [14, 20]: 100
- Plant response rating, Kochia [14, 23]: 100
- Plant response rating (0 to 100), Kochia [14, 28]: 100
- Plant response rating, Lambsquarters [15, 27]: 100
- Plant response rating, Lambsquarters [15, 20]: 100
- Plant response rating, Lambsquarters [15, 23]: 100
- Plant response rating, Lambsquarters [15, 25]: 100
- Plant response rating, Pigweed [16, 20]: 100
- Plant response rating, Pigweed [16, 23]: 100
- Plant response rating, Pigweed [16, 25]: 100
- Plant response rating, Soybean [17, 23]: 30
- Plant response rating, Soybean [17, 25]: 100
- Plant response rating, Velvetleaf [18, 20]: 30
- Plant response rating, Velvetleaf [18, 23]: 0
- Plant response rating, Velvetleaf [18, 25]: 80
- Plant response rating, Cupgrass, Woolly [19, 27]: 30
- Plant response rating, Cupgrass, Woolly [19, 20]: 30
- Plant response rating, Cupgrass, Woolly [19, 23]: 0
- Plant response rating (0 to 100), Cupgrass, Woolly [19, 28]: 100

Reference: patent publication US7138361B2, “Herbicidal heterocycles” (E. I. du Pont de Nemours and Company, priority 2000, dated 2006)
